This assay has as its system HL-60. The assay is described as follows: Cytotoxicity against human HL60 cells after 72 hrs by MTT assay. The assay is classed as functional, cell-based. The conditions noted are these: HL-60, 72 h. In general terms: Tetrazolium dyes change colour on reduction, which living cells bring about.

For orientation: IC50 means the point on the concentration scale where inhibition reaches its midpoint. Low readings indicate greater potency in that assay, high ones weaker potency in that assay.

In brackets after ≈: the same amount, converted by molar mass.

`CC(=O)O[C@@H]1[C@@H](O)[C@H](C)O[C@@H](O[C@H]2C[C@H]3[C@@H]4CC=C5C[C@@H](O[C@@H]6O[C@H](CO)[C@@H](O)[C@H](O)[C@H]6O)CC[C@]5(C)[C@H]4CC[C@]3(C)[C@H]2[C@H](C)[C@@H](O)CC=C(C)C)[C@@H]1O`: the midpoint of inhibition, the IC50, lay at 6.8 µg/mL (≈ 8.87 µM).

In the case of `COc1cc([C@@H]2c3cc4c(cc3[C@@H](O[C@@H]3O[C@@H]5CO[C@@H](C)O[C@H]5[C@H](O)[C@H]3O)[C@H]3COC(=O)[C@H]23)OCO4)cc(OC)c1O` [ETOPOSIDE], the IC50 turned out to be 0.25 µg/mL (≈ 0.425 µM).

Source of the values: ChEMBL document CHEMBL1155749, “Five new polyoxygenated cholestane bisdesmosides from the bulbs of Galtonia candicans” (J Nat Prod, 2001).
